Data on six molecules can be found in patent publication US8895504B2, “Amylin derivatives” (priority 2008, dated 2014).

Where two headings read alike, the source gives them in different places. *1 amine or outer side, *2 acyl side, *3 side chain or, on linkers, in order; H or OH if unused. Where a SMILES comes first, the peptide text is derived from it. Bridges are numbered along the chain shown (N, C = ends). The star is where a group is joined. C20 diacid = O=C(O)CCCCCCCCCCCCCCCCCCC(=O)*; C18 diacid = O=C(O)CCCCCCCCCCCCCCCCC(=O)*; PEG8 = NCCOCCOCCOCCOCCOCCOCCOCCOCCC(=O)O; γGlu = O=C(O)[C@H](CCC(=O)[*:2])N[*:1]; Trx = NC[C@H]1CC[C@H](C(=O)O)CC1

The assay concerns the target T1, Amylin 3(a) receptor (human calcitonin receptor (CTa) and RAMP-3) (Homo sapiens, UniProt O60896+P30988).
T1 construct: expressed in transfected cells; host or cells: BHK570 cells, stably transfected with a CRE-luciferase reporter
The assay is described as follows: Luciferase assay (III), BHK Amylin 3(a)//CRE-luc cells. In kind it is cell-based. To be noted: BHK cells with Amylin 3(a) receptor and CRE luciferase reporter, 4 hours incubation. Summed up:
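Read-out is CRE-driven luciferase luminescence, taken 30 min after LucLite addition at room temperature. Compounds were incubated 4 h at 37° C in assay medium (10% FBS, 10 mM Hepes, pH 7,4). The cell line is BHK570 co-transfected with human calcitonin receptor CTa and RAMP-3, seeded overnight before use.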
(In general: A reporter such as luciferase makes a cellular process visible.)

T1 sequence (O60896 24-148): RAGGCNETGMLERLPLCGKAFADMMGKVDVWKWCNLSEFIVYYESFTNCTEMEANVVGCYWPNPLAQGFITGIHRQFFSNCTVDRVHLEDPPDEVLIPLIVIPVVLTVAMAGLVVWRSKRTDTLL
T1 sequence (P30988 25-474): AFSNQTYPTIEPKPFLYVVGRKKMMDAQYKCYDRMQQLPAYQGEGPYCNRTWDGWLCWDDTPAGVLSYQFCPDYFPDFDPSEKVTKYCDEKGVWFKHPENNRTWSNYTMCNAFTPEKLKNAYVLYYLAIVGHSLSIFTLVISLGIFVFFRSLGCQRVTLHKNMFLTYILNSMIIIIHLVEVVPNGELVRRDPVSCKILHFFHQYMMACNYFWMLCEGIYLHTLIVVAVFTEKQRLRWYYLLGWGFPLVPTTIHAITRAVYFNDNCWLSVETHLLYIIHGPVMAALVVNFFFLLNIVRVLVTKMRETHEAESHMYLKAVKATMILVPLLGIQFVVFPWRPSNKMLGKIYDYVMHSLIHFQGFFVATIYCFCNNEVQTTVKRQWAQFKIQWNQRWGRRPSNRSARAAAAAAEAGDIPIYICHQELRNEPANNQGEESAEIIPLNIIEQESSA

As to `CC[C@H](C)[C@H](NC(=O)[C@@H]1CCCN1C(=O)CNC(=O)[C@H](Cc1ccccc1)NC(=O)[C@H](CC(N)=O)NC(=O)[C@H](CC(N)=O)NC(=O)[C@H](CO)NC(=O)[C@H](CO)NC(=O)[C@H](Cc1c[nH]cn1)NC(=O)[C@H](Cc1c[nH]cn1)NC(=O)[C@H](CC(C)C)NC(=O)[C@H](Cc1ccccc1)NC(=O)[C@H](CC(N)=O)NC(=O)[C@H](C)NC(=O)[C@H](CC(C)C)NC(=O)[C@H](CCCNC(=N)N)NC(=O)[C@H](CCC(N)=O)NC(=O)[C@@H](NC(=O)[C@H](C)NC(=O)[C@@H]1CSSC[C@H](NC(=O)[C@H](CCCCN)NC(=O)[C@H](CCCNC(=N)N)NC(=O)[C@H](CCCCN)NC(=O)[C@H](CCC(=O)O)NC(=O)CCCCCCCCCCCCCCCCCCC(=O)O)C(=O)N[C@@H](CC(N)=O)C(=O)N[C@@H]([C@@H](C)O)C(=O)N[C@@H](C)C(=O)N[C@@H]([C@@H](C)O)C(=O)N1)[C@@H](C)O)C(=O)N[C@@H](CC(C)C)C(=O)N1CCC[C@H]1C(=O)N1CCC[C@H]1C(=O)N[C@H](C(=O)N[C@@H](CC(N)=O)C(=O)N[C@H](C(=O)NCC(=O)N[C@@H](CO)C(=O)N[C@@H](CC(N)=O)C(=O)N[C@H](C(=O)N[C@@H](Cc1ccc(O)cc1)C(N)=O)[C@@H](C)O)C(C)C)[C@@H](C)O` [Example 9, N-alpha-[19-carboxynonadecanoyl]-Glu-Lys-Arg-[His17]-pramlintide] ({C20 diacid}-EKRKCNTATCATQRLANFLHHSSNNFGPILPPTNVGSNTY-NH2; disulfide 5-10), where the note is “read-out: Potency Luciferase”, the EC50 is 0.06 nM.
On the same count and under the same terms, then `CC[C@H](C)[C@H](NC(=O)[C@@H]1CCCN1C(=O)CNC(=O)[C@H](Cc1ccccc1)NC(=O)[C@H](CC(N)=O)NC(=O)[C@H](CC(N)=O)NC(=O)[C@H](CO)NC(=O)[C@H](CO)NC(=O)[C@H](Cc1c[nH]cn1)NC(=O)[C@H](Cc1c[nH]cn1)NC(=O)[C@H](CC(C)C)NC(=O)[C@H](Cc1ccccc1)NC(=O)[C@H](CC(N)=O)NC(=O)[C@H](C)NC(=O)[C@H](CC(C)C)NC(=O)[C@H](CCCNC(=N)N)NC(=O)[C@H](CCC(N)=O)NC(=O)[C@@H](NC(=O)[C@H](C)NC(=O)[C@@H]1CSSC[C@H](NC(=O)[C@H](Cc2c[nH]cn2)NC(=O)[C@H](Cc2c[nH]cn2)NC(=O)[C@H](Cc2c[nH]cn2)NC(=O)CC[C@H](NC(=O)CCCCCCCCCCCCCCCCC(=O)O)C(=O)O)C(=O)N[C@@H](CC(N)=O)C(=O)N[C@@H]([C@@H](C)O)C(=O)N[C@@H](C)C(=O)N[C@@H]([C@@H](C)O)C(=O)N1)[C@@H](C)O)C(=O)N[C@@H](CC(C)C)C(=O)N1CCC[C@H]1C(=O)N1CCC[C@H]1C(=O)N[C@H](C(=O)N[C@@H](CC(N)=O)C(=O)N[C@H](C(=O)NCC(=O)N[C@@H](CO)C(=O)N[C@@H](CC(N)=O)C(=O)N[C@H](C(=O)N[C@@H](Cc1ccc(O)cc1)C(N)=O)[C@@H](C)O)C(C)C)[C@@H](C)O` [Example 60, N-alpha-[(S)-4-Carboxy-4-(17-carboxyheptadecanoylamino)butyryl]-His-His-[His1,His17]-pramlintide] ({C18 diacid-γGlu}-HHHCNTATCATQRLANFLHHSSNNFGPILPPTNVGSNTY-NH2; disulfide 4-9), with 0.05 nM.
For `CC[C@H](C)[C@H](NC(=O)[C@@H]1CCCN1C(=O)CNC(=O)[C@H](Cc1ccccc1)NC(=O)[C@H](CC(N)=O)NC(=O)[C@H](CC(N)=O)NC(=O)[C@H](CO)NC(=O)[C@H](CO)NC(=O)[C@H](Cc1c[nH]cn1)NC(=O)[C@H](Cc1c[nH]cn1)NC(=O)[C@H](CC(C)C)NC(=O)[C@H](Cc1ccccc1)NC(=O)[C@H](CC(N)=O)NC(=O)[C@H](C)NC(=O)[C@H](CC(C)C)NC(=O)[C@H](CCCNC(=N)N)NC(=O)[C@H](CCC(N)=O)NC(=O)[C@@H](NC(=O)[C@H](C)NC(=O)[C@@H]1CSSC[C@H](NC(=O)[C@H](Cc2c[nH]cn2)NC(=O)CC[C@H](NC(=O)[C@H]2CC[C@H](CNC(=O)CCCCCCCCCCCCCCCCCCC(=O)O)CC2)C(=O)O)C(=O)N[C@@H](CC(N)=O)C(=O)N[C@@H]([C@@H](C)O)C(=O)N[C@@H](C)C(=O)N[C@@H]([C@@H](C)O)C(=O)N1)[C@@H](C)O)C(=O)N[C@@H](CC(C)C)C(=O)N1CCC[C@H]1C(=O)N1CCC[C@H]1C(=O)N[C@H](C(=O)N[C@@H](CC(N)=O)C(=O)N[C@H](C(=O)NCC(=O)N[C@@H](CO)C(=O)N[C@@H](CC(N)=O)C(=O)N[C@H](C(=O)N[C@@H](Cc1ccc(O)cc1)C(N)=O)[C@@H](C)O)C(C)C)[C@@H](C)O` [Example 33, N-alpha-[4-Carboxy-4-({4-[(19-carboxynonadecanoylamino)methyl]transcyclohexanecarbonyl}amino)butyryl]-[His1,His17]-pramlintide] ({C20 diacid-Trx-γGlu}-HCNTATCATQRLANFLHHSSNNFGPILPPTNVGSNTY-NH2; disulfide 2-7; C-terminus assumed), for the setting “Potency Luciferase”, the EC50 turned out to be 0.1 nM.
Turning to `CC[C@H](C)[C@H](NC(=O)[C@@H]1CCCN1C(=O)CNC(=O)[C@H](Cc1ccccc1)NC(=O)[C@H](CC(N)=O)NC(=O)[C@H](CC(N)=O)NC(=O)[C@H](CO)NC(=O)[C@H](CO)NC(=O)[C@H](Cc1c[nH]cn1)NC(=O)[C@H](Cc1c[nH]cn1)NC(=O)[C@H](CC(C)C)NC(=O)[C@H](Cc1ccccc1)NC(=O)[C@H](CC(N)=O)NC(=O)[C@H](C)NC(=O)[C@H](CC(C)C)NC(=O)[C@H](CCCNC(=N)N)NC(=O)[C@H](CCC(N)=O)NC(=O)[C@@H](NC(=O)[C@H](C)NC(=O)[C@@H]1CSSC[C@H](NC(=O)[C@H](Cc2c[nH]cn2)NC(=O)[C@H](CCCNC(=N)N)NC(=O)[C@H](Cc2c[nH]cn2)NC(=O)[C@H](CCC(=O)O)NC(=O)CC[C@H](NC(=O)CCCCCCCCCCCCCCCCCCC(=O)O)C(=O)O)C(=O)N[C@@H](CC(N)=O)C(=O)N[C@@H]([C@@H](C)O)C(=O)N[C@@H](C)C(=O)N[C@@H]([C@@H](C)O)C(=O)N1)[C@@H](C)O)C(=O)N[C@@H](CC(C)C)C(=O)N1CCC[C@H]1C(=O)N1CCC[C@H]1C(=O)N[C@H](C(=O)N[C@@H](CC(N)=O)C(=O)N[C@H](C(=O)NCC(=O)N[C@@H](CO)C(=O)N[C@@H](CC(N)=O)C(=O)N[C@H](C(=O)N[C@@H](Cc1ccc(O)cc1)C(N)=O)[C@@H](C)O)C(C)C)[C@@H](C)O` [Example 66, N-alpha-[(S)-4-Carboxy-4-(19-carboxynonadecanoylamino)butyryl]-Glu-His-Arg-[His1,His17]-pramlintide] ({C20 diacid-γGlu}-EHRHCNTATCATQRLANFLHHSSNNFGPILPPTNVGSNTY-NH2; disulfide 5-10), the EC50 (read-out: Potency Luciferase) was found to be 0.1 nM.
On the same count and under the same terms, then `CC[C@H](C)[C@H](NC(=O)[C@@H]1CCCN1C(=O)CNC(=O)[C@H](Cc1ccccc1)NC(=O)[C@H](CC(N)=O)NC(=O)[C@H](CC(N)=O)NC(=O)[C@H](CO)NC(=O)[C@H](CO)NC(=O)[C@H](Cc1c[nH]cn1)NC(=O)[C@H](Cc1c[nH]cn1)NC(=O)[C@H](CC(C)C)NC(=O)[C@H](Cc1ccccc1)NC(=O)[C@H](CC(N)=O)NC(=O)[C@H](C)NC(=O)[C@H](CC(C)C)NC(=O)[C@H](CCCNC(=N)N)NC(=O)[C@H](CCC(N)=O)NC(=O)[C@@H](NC(=O)[C@H](C)NC(=O)[C@@H]1CSSC[C@H](NC(=O)[C@H](CCCNC(=N)N)NC(=O)CCOCCOCCOCCOCCOCCOCCOCCOCCNC(=O)CC[C@H](NC(=O)CCCCCCCCCCCCCCCCC(=O)O)C(=O)O)C(=O)N[C@@H](CC(N)=O)C(=O)N[C@@H]([C@@H](C)O)C(=O)N[C@@H](C)C(=O)N[C@@H]([C@@H](C)O)C(=O)N1)[C@@H](C)O)C(=O)N[C@@H](CC(C)C)C(=O)N1CCC[C@H]1C(=O)N1CCC[C@H]1C(=O)N[C@H](C(=O)N[C@@H](CC(N)=O)C(=O)N[C@H](C(=O)NCC(=O)N[C@@H](CO)C(=O)N[C@@H](CC(N)=O)C(=O)N[C@H](C(=O)N[C@@H](Cc1ccc(O)cc1)C(N)=O)[C@@H](C)O)C(C)C)[C@@H](C)O` [Example 52, N-alpha-[3-(2-{2-[2-(2-{2-[2-(2-{2-[(S)-4-Carboxy-4-(17-carboxyheptadecanoylamino)butyrylamino]ethoxy}ethoxy)ethoxy]ethoxy}ethoxy)ethoxy]ethoxy}ethoxy)propionylamino][Arg1,His17]-pramlintide] ({C18 diacid-γGlu-PEG8}-RCNTATCATQRLANFLHHSSNNFGPILPPTNVGSNTY-NH2; disulfide 2-7), with 0.08 nM.
For `CC(C)C[C@H](NC(=O)[C@H](CCCNC(=N)N)NC(=O)[C@H](CCC(N)=O)NC(=O)[C@@H](NC(=O)[C@H](C)NC(=O)[C@@H]1CSSC[C@H](NC(=O)[C@H](CCC(=O)O)NC(=O)[C@H](CCCNC(=N)N)NC(=O)[C@H](CCC(=O)O)NC(=O)CC[C@H](NC(=O)CCCCCCCCCCCCCCCCCCC(=O)O)C(=O)O)C(=O)N[C@@H](CC(N)=O)C(=O)N[C@@H]([C@@H](C)O)C(=O)N[C@@H](C)C(=O)N[C@@H]([C@@H](C)O)C(=O)N1)[C@@H](C)O)C(=O)N[C@@H](C)C(=O)N[C@@H](CC(=O)O)C(=O)N[C@@H](Cc1ccccc1)C(=O)N[C@@H](CC(C)C)C(=O)N[C@@H](Cc1c[nH]cn1)C(=O)N[C@@H](Cc1c[nH]cn1)C(=O)N[C@@H](CO)C(=O)N[C@@H](CO)C(=O)N[C@@H](CC(N)=O)C(=O)N[C@@H](CC(N)=O)C(=O)N[C@@H](Cc1ccccc1)C(=O)NCC(=O)N[C@@H](C)C(=O)N1CCC[C@H]1C(=O)N[C@@H](CC(C)C)C(=O)N[C@@H](CO)C(=O)N[C@@H](CO)C(=O)N[C@H](C(=O)N[C@@H](CC(N)=O)C(=O)N[C@H](C(=O)NCC(=O)N[C@@H](CO)C(=O)N[C@@H](CC(N)=O)C(=O)N[C@H](C(=O)N[C@@H](Cc1ccc(O)cc1)C(N)=O)[C@@H](C)O)C(C)C)[C@@H](C)O` [Example 42, N-alpha-[(S)-4-Carboxy-4-(19-carboxynonadecanoylamino)butyryl]-Glu-Arg-[Glu1,Asp14,His17,Ala25,Pro26,Ser28,Ser29]-pramlintide] ({C20 diacid-γGlu}-ERECNTATCATQRLADFLHHSSNNFGAPLSSTNVGSNTY-NH2; disulfide 4-9), under “read-out: Potency Luciferase”, the EC50 was 0.6 nM.
